Consider three compounds from patent US20230233520A1, “COMBINATION THERAPY OF ARTEMISININ-RELATED COMPOUNDS AND HISTONE DEACETYLASE INHIBITORS FOR TREATMENT OF HPV-RELATED BENIGN, PREMALIGNANT, AND MALIGNANT DISEASES” (Georgetown University, priority 2020, published 2023).

One data set relates to Caski cells. As to the kind of experiment: […]-GLO cell viability, single drugs (Example 1). Type of data set: cell-based. The settings on record: Homo sapiens, Ca-Ski, 72 h, read-out: IC50 Confidence Interval. An excerpt:
(§1) To test the individual effects of artesunate and panobinostat, three cervical cancer cell model lines (Caski, SiHa, and HeLa cells) were obtained from the American Type Culture Collection (Manassas, Va.) and maintained in DMEM (Invitrogen) supplemented with 10% fetal bovine serum (Quality Biological, Inc., Gaitherburg, Md.) and penicillin/streptomycin (Invitrogen), in accordance with previous experiments. The cells were split every 3 to 5 days to prevent any of the lines from becoming fully confluent.
(§2) To prepare the cells for treatment, 6000 cells per well were seeded in 96-well plates (for each cell line). Cells were then incubated for a 24-hour period to allow them to adhere to the wells. The cells were then treated with various concentrations of artesunate or panobinostat. For artesunate, the concentrations used for treating each cell type were 80 μM, 40 μM, 20 μM, 10 μM, 5 μM, 2.5 μM, and 1.25 μM. […] Control wells consisted of DMEM, in which the DMSO concentration was the highest drug concentration (0.2% for artesunate, 0.064% for panobinostat) tested. Each concentration was performed in triplicate and the control was conducted in sextuplicate.
(§3) After an incubation time of 72 hours, the […]-GLO® Luminescent Cell Viability Assay (Promega) was conducted. The buffer/enzyme solution was mixed and applied to the cells according to the Promega protocol. Cells were then placed on the orbital shaker for 3 minutes, incubated for 30 minutes, and placed in the luminometer for reading.
(§4) To analyze the data, the background (from only the DMEM media) was subtracted from the luminescence of each well. The program GraphPad Prism 7 was then used to calculate the IC50 values and the cell viability curves for each drug and cell line. All readings were normalized based upon the control values.

The test system of data set [1] is HeLa cells. As to the kind of experiment: […]-GLO cell viability, single drugs (Example 1). Type of data set: cell-based. The settings on record: 72 h.
Excerpt: as §1, §2, §3, §4

In data set [2] the test system is SiHa cells. Kind of data set: […]-GLO cell viability, single drugs (Example 1). The settings on record: Homo sapiens, 72 h, read-out: IC50 Confidence Interval. Format: cell-based.
Excerpt: as §1, §2, §3, §4

In data set [3] the test system is HeLa cells. Kind of data set: […]-GLO cell viability, artesunate/panobinostat dose pairings, CompuSyn analysis (Example 1). Format: cell-based. Also on record: key: fraction surviving, normalized to average of untreated controls. How it is done:
To test the combined effects of artesunate and panobinostat, HeLa cells were cultured as previously described. The cells were then seeded in 96-well plates as discussed above. After the 24-hour incubation period, the cells were treated by the following means. […] All possible pairings of each drug concentration were tested. […] All pairings were performed in triplicate and the control was performed in sextuplicate.
After 72 hours of incubation time, the […]-GLO® Luminescent Cell Viability Assay (Promega) was conducted as above. The combination effect of the drugs was analyzed using the CompuSyn program. The background (DMEM only) was subtracted as described previously and all experimental wells were normalized to the average of the controls (as above).

The subject of data set [4] is HeLa cells. As to the kind of experiment: […]-GLO cell viability, drugs alone and in combination (Example 4). The settings on record: Homo sapiens. Format: cell-based. How it is done:
(§5) The IC50 values were calculated from the cell viability assays for each drug alone and in combination. […] Cells were then incubated for a 24-hour period to allow them to adhere to the wells. […] For the experiments involving artesunate and panobinostat, the concentrations used varied by cell type. […] The buffer/enzyme solution was mixed and applied to the cells according to the Promega protocol. Cells were then placed on the orbital shaker for 2 minutes and then placed in the luminometer for reading. To analyze the data, the background (from only the DMEM media) was subtracted from the luminescence of each well. […] All readings were normalized based upon the control values. […] Analyses were conducted using GraphPad Prism 9. The combination index and dose-reduction index values were calculated based using the summary of the data for all three cell types. […] Dose reduction values are the measure of how many folds the dose of each drug in a synergistic combination may be reduced compared with the doses of each drug alone. […] The values are shown in Table 4 for IC50 and in Table 5 for IC90. […] The methods of analysis are the same as those described above. […] A DMSO experimental stock was made in DMEM as a negative control. […] Analyses were conducted using GraphPad Prism 9. The combination index and dose-reduction index values were calculated based using the summary of the data for all three cell types. […] Dose reduction values are the measure of how many folds the dose of each drug in a synergistic combination may be reduced compared with the doses of each drug alone. […] The values are shown in Table 6 for IC50 and in Table 7 for IC90.

The subject of data set [5] is SiHa cells. The description is as above. Type of data set: cell-based. The settings on record: Homo sapiens. How it is done: as §5
The next data set deals with HEC/16E6E7 cells. The data set is described as above. Type of data set: cell-based. How it is done:
The cell lines were treated with artesunate, vorinostat, and panobinostat individually and in combination. The IC50 values were calculated from the cell viability assays for each drug alone and in combination. […] Cells were then incubated for a 24-hour period to allow them to adhere to the wells. […] For the experiments involving artesunate and panobinostat, the concentrations used varied by cell type. […] After an incubation time of 72 hours, the […]-GLO® Luminescent Cell Viability Assay (Promega) was conducted. The buffer/enzyme solution was mixed and applied to the cells according to the Promega protocol. Cells were then placed on the orbital shaker for 2 minutes and then placed in the luminometer for reading. To analyze the data, the background (from only the DMEM media) was subtracted from the luminescence of each well. […] All readings were normalized based upon the control values. […] Analyses were conducted using GraphPad Prism 9. The combination index and dose-reduction index values were calculated based using the summary of the data for all three cell types. […] Dose reduction values are the measure of how many folds the dose of each drug in a synergistic combination may be reduced compared with the doses of each drug alone. By reducing dose, toxicity is reduced without compromising effect. The values are shown in Table 4 for IC50 and in Table 5 for IC90. […] The methods of analysis are the same as those described above. […] A DMSO experimental stock was made in DMEM as a negative control. […] Analyses were conducted using GraphPad Prism 9. The combination index and dose-reduction index values were calculated based using the summary of the data for all three cell types. […] Dose reduction values are the measure of how many folds the dose of each drug in a synergistic combination may be reduced compared with the doses of each drug alone. By reducing dose, toxicity is reduced without compromising effect. The values are shown in Table 6 for IC50 and in Table 7 for IC90.

For the next data set, the system named is HPV precancers. The settings on record: self-administered by patients; published clinical trial [8]; cited from earlier work.
Data set [6] deals with HPV 16- and HPV 18-positive cells. The settings on record: in vitro experiments [7]; cited from earlier work.
For data set [7] the following is noted: toxicity to humans; cited from earlier work.

SMILES strings stand for the structures. Read-outs that look alike come from different tables or passages of the source.

Consider `C[C@H]1[C@H](OC(=O)CCC(=O)O)O[C@@H]2O[C@@]3(C)CC[C@H]4[C@H](C)CC[C@@H]1[C@@]24OO3` [artesunate], for which the 50% inhibitory concentration (IC50) in the data set on Caski cells was 1.74 to 3.14 µM; in the data set with HeLa cells [1] (Homo sapiens, drug alone), approximately 5 µM; with HeLa cells [1] (Homo sapiens, read-out: IC50 Confidence Interval, HeLa, 95% confidence interval) it was 4.33 to 6.07 µM; in the data set with HeLa cells [1] (drug alone), 5.13 µM; in the data set with SiHa cells [2], 6.8 to 9.43 µM; with HeLa cells [4] (HeLa, 72 h, read-out: IC50 ART) it was 3.7 µM. The half-inhibitory concentration (IC50) in the data set with HeLa cells [4] (HeLa, read-out: IC50 ART) was found to be 4.55 µM; in the data set with SiHa cells [5] (SiHa, 72 h, read-out: IC50 ART), 4.83 µM; with SiHa cells [5] (SiHa, read-out: IC50 ART), 6.06 µM; in the data set on HEC/16E6E7 cells (72 h, read-out: IC50 ART), 4.93 µM; in the data set with HEC/16E6E7 cells (read-out: IC50 ART), 6.99 µM. The “Effect (fraction of HeLa cells still surviving)” value with HeLa cells [3] (artesunate 1.25 uM alone) was determined as 0.7457; in the data set with HeLa cells [3] (artesunate 2.5 uM alone), 0.6418; in the data set with HeLa cells [3] (artesunate 5.0 uM alone), 0.5808; in the data set with HeLa cells [3] (artesunate 10.0 uM alone), 0.4287; in the data set with HeLa cells [3] (artesunate 20.0 uM alone), 0.3015. Besides, the IC90 came out at 14.3 µM with HeLa cells [4] (HeLa, 72 h, read-out: IC90 ART); 15.5 µM in the data set with HeLa cells [4] (HeLa, read-out: IC90 ART); 30 µM in the data set on SiHa cells [5] (SiHa, 72 h, read-out: IC90 ART); 34.5 µM with SiHa cells [5] (SiHa, read-out: IC90 ART); 77.6 µM with HEC/16E6E7 cells (72 h, read-out: IC90 ART); 158 µM in the data set on HEC/16E6E7 cells (read-out: IC90 ART). The “cure of HPV precancers” value in the data set on HPV precancers is reported as 70%. The “killing of HPV-positive cells” value in [6] is on record as “selectively kill”. Also, the “safety relative to artemether” value in data set [7] was “twice as safe as artemether”. For the same compound, in [7], the “toxicity relative to chloroquinine” value was “one-fiftieth as toxic as chloroquinine”.

With `Cc1[nH]c2ccccc2c1CCNCc1ccc(/C=C/C(=O)NO)cc1` [panobinostat], the IC50 in the data set on Caski cells (Caski, 95% confidence interval) was 0.00655 to 0.0125 µM; in the data set with HeLa cells [1] (Homo sapiens, 95% confidence interval, read-out: IC50 Confidence Interval), 0.00771 to 0.0132 µM; with HeLa cells [1] (Homo sapiens, drug alone, read-out: IC50), approximately 0.01 µM; with HeLa cells [1] (drug alone, read-out: IC50), 0.0101 µM; with SiHa cells [2] (95% confidence interval) it was 0.0199 to 0.0257 µM; in the data set on HeLa cells [4] (Hela, PAN alone, 72 h, read-out: IC50 PAN), 14.7 µM. For the same compound, the 50% inhibitory concentration (IC50) in the data set on SiHa cells [5] (Siha, PAN alone, 72 h, read-out: IC50 PAN) was determined as 17.8 µM; in the data set on HEC/16E6E7 cells (HEC/16E6E7, PAN alone, 72 h, read-out: IC50 PAN), 25 µM. The “Effect (fraction of HeLa cells still surviving)” value in the data set on HeLa cells [3] (panobinostat 2.5 nM alone) is recorded as 0.7864; with HeLa cells [3] (panobinostat 5.0 nM alone), 0.7379; in the data set on HeLa cells [3] (panobinostat 10.0 nM alone), 0.6177; in the data set on HeLa cells [3] (panobinostat 20.0 nM alone), 0.4359; with HeLa cells [3] (panobinostat 40.0 nM alone), 0.3322. Also, the 90% effect concentration (IC90) was determined as 60.5 µM in the data set with HeLa cells [4] (Hela, PAN alone, 72 h, read-out: IC90 PAN); 67.6 µM with SiHa cells [5] (Siha, PAN alone, 72 h, read-out: IC90 PAN); 115 µM in the data set with HEC/16E6E7 cells (HEC/16E6E7, PAN alone, 72 h, read-out: IC90 PAN).

As to `O=C(CCCCCCC(=O)Nc1ccccc1)NO` [vorinostat], the IC90 in the data set with HeLa cells [4] (Hela, SAHA alone, read-out: IC90 SAHA) was 6.5 µM; in the data set with SiHa cells [5] (Siha, SAHA alone, read-out: IC90 SAHA), 13.2 µM; in the data set on HEC/16E6E7 cells (HEC/16E6E7, SAHA alone, read-out: IC90 SAHA), 8.54 µM. For the same compound, the IC50 with HEC/16E6E7 cells (HEC/16E6E7, SAHA alone, read-out: IC50 SAHA) is 2.31 µM.

Usually IC50 stands for the concentration at which inhibition is half-maximal. The IC90 is the concentration needed for an effect of 90%.
